Assay results reported in US20140328944A1, “USE OF CTBP1 siRNA FOR THE TREATMENT OF GASTRIC CANCER” (CTI, priority 2013, published 2014).

System: AGS and MKN45 gastric cancer cell lines
Assay: MTS-based cell proliferation assay after siRNA transfection (drug dose-response)
Details: CTBP1 siRNA (5 nM) vs untreated cells (WT) and control siRNA, 72 h drug incubation
Method: MKN45 cell lines were grown in RPM1-1640 media and AGS cell lines in F12K, both media were supplemented with 10% characterized fetal bovine serum (FBS) (Hyclone, Logan, Utah, USA) and 100 U /ml of Penicillin /Streptomycin (Gibco BRL, Gaithersburgh, Md., USA). Cells were grown in an incubator (NUAIRE, Plymouth, USA) at 37° C. with an atmosphere of 5% CO2 and 90% humidity. The drugs 5-FU, Cisplatin and Epirubicin were donated for this research by the Kampar Oncology Laboratory (Santiago, Chile).
In 6-well plates, 200,000 cells were cultured in their respective culture medium with 10% FBS for 24 h at 37° C. and 5% CO2 pressure. Then cells were washed once with PBS IX and 900 ul of their respective medium without serum and without antibiotic were added.
The cells were transfected with a pool of 4 siRNA Flexitube siRNA CTBP1 and siRNA control AllStars Negative Control (QIAGEN, Valencia, Calif., USA) at a concentration of 5 nM with 2.5 ul of Lipofectamine 2000 (Invitrogen, Carlsbad, Calif., USA). […]
24 hours after transfection, cells were seeded in 96 well plates at a concentration of 10,000 cells per well. […] The IC50 values were calculated using GraphPad 5.0 software. The results of the response to the drugs were expressed as mean±SD. […]

## O=c1[nH]cc(F)c(=O)[nH]1 [5-FU, 5-Fluorouracil]
  increase in sensitivity to the drug on silencing of CTBP1 with siRNA: approximately 6 times

## COc1cccc2c1C(=O)c1c(O)c3c(c(O)c1C2=O)C[C@@](O)(C(=O)CO)C[C@@H]3O[C@H]1C[C@H](N)[C@@H](O)[C@H](C)O1 [Epirubicin]
  increase in sensitivity to the drug on silencing of CTBP1 with siRNA: 12-17 times
